Assay results taken from ChEMBL document CHEMBL4422630, “Identification of substituted 5-membered heterocyclic compounds as potential anti-leukemic agents” (Eur J Med Chem, 2019).
pEC50: −log10 of the molar value. Blank lines part the entries; values can stand above or below the molecule they belong to. Active and inactive are the calls of the source. No cut-off for these calls is given here.

Columns and labels:
[1] = test system: SUP-B15; assay: Antiproliferative activity against human SUP-B15 assessed as reduction in cell viability after 72 hrs by CellTiter-Glo assay; format: functional, cell-based; conditions: SUP-B15, 72 h
[2] = test system: B-ALL; assay: Antiproliferative activity against mouse B-ALL BCR-ABL double knockout cells assessed as reduction in cell viability after 72 hrs by CellTiter-Glo assay; format: functional, cell-based
[3] = Therapeutic index, ratio of EC50 for human BJ cells to EC50 for mouse B-ALL cells expressing wild type BCR-ABL; format: toxicity; conditions: human BJ cells versus mouse B-ALL cells expressing wild type BCR-ABL; read-out: Ratio EC50
[4] = test system: UoC-B1; assay: Antiproliferative activity against human UOCB1 assessed as reduction in cell viability after 72 hrs by CellTiter-Glo assay; format: functional, cell-based; conditions: UoC-B1, 72 h
[5] = test system: B-ALL; assay: Antiproliferative activity against mouse B-ALL cells expressing wild type BCR-ABL assessed as reduction in cell viability after 72 hrs by CellTiter-Glo assay; format: functional, cell-based
[6] = test system: NALM-6; assay: Antiproliferative activity against human NALM6 assessed as reduction in cell viability after 72 hrs by CellTiter-Glo assay; format: functional, cell-based; conditions: NALM-6, 72 h
[7] = test system: KOPN-8; assay: Antiproliferative activity against human KOPN8 assessed as reduction in cell viability after 72 hrs by CellTiter-Glo assay; format: functional, cell-based; conditions: KOPN-8, 72 h
[8] = test system: BJ; assay: Antiproliferative activity against human BJ assessed as cell viability after 72 hrs by CellTiter-Glo assay; format: functional, cell-based
[9] = test system: SUP-B15; assay: Induction of apoptosis in human SUP-B15 cells assessed as increase in caspase 3/7 activity after 24 hrs by caspase-Glo 3/7 reagent based luminescence assay; format: functional, cell-based
[10] = test system: SUP-B15; assay: Induction of apoptosis in human SUP-B15 cells assessed as late apoptotic cells level after 24 hrs by Annexin V and propidium iodide staining based flow cytometry (reference value: 13.5%); format: functional
[11] = test system: K562; assay: Antiproliferative activity against human K562 assessed as reduction in cell viability after 72 hrs by CellTiter-Glo assay; format: functional, cell-based; conditions: K562, 72 h
[12] = test system: SUP-B15; assay: Induction of apoptosis in human SUP-B15 cells assessed as late apoptotic cells level after 24 hrs by Annexin V and propidium iodide staining based flow cytometry (reference value: 83%); format: functional
[13] = test system: SUP-B15; assay: Induction of apoptosis in human SUP-B15 cells assessed as decrease in cell viability at […] after 24 hrs by ApoTox-Glo triplex assay; format: functional, cell-based
[14] = Protein binding in human plasma; format: ADME, cell-free; conditions: read-out: PPB (converted)
[15] = Intrinsic clearance in mouse microsomes; format: ADME, Microsome
[16] = test system: KOPN-8; assay: Induction of apoptosis in human KOPN8 cells assessed as late apoptotic cells level after 24 hrs by Annexin V and propidium iodide staining based flow cytometry (reference value: 2%); format: functional
[17] = test system: SUM149PT; assay: Cytotoxicity against human SUM149 cells at 1 uM after 24 hrs by propidium iodide staining-based fluorescence assay relative to control; format: functional, cell-based
[18] = Apparent permeability of compound form basolateral to apical side in human Caco2 cells; format: ADME, cell-based; conditions: Caco-2
[19] = Half life in human microsomes; format: ADME, Microsome
[20] = Half life in human plasma; format: ADME, cell-free
[21] = test system: SUP-B15; assay: Induction of apoptosis in human SUP-B15 cells assessed as decrease in cell viability at 5 uM after 24 hrs by Annexin V/propidium iodide staining-based flow cytometric analysis; format: functional
[22] = test system: KOPN-8; assay: Cell cycle arrest in human KOPN8 cells assessed as increase in accumulation of cells at S phase at 5 uM after 24 hrs by propidium iodide staining-based flow cytometric analysis; format: functional
[23] = test system: B-ALL; assay: Induction of apoptosis in mouse B-ALL BCR-ABL double knockout cells assessed as increase in caspase 3/7 activity after 24 hrs by caspase-Glo 3/7 reagent based luminescence assay; format: functional, cell-based
[24] = test system: MDA-MB-231; assay: Cytotoxicity against human MDA-MB-231 cells up to 30 uM after 24 hrs by propidium iodide staining-based fluorescence assay; format: functional, cell-based
[25] = test system: KOPN-8; assay: Cell cycle arrest in human KOPN8 cells assessed as reduction in accumulation of cells at G1/G0 phase at 5 uM after 24 hrs by propidium iodide staining-based flow cytometric analysis; format: functional
[26] = Half life in simulated gastric fluid; format: ADME
[27] = Apparent permeability of compound form apical to basolateral side in human Caco2 cells; format: ADME, cell-based; conditions: Caco-2
[28] = Half life in mouse plasma; format: ADME, cell-free
[29] = Permeability of compound at pH 7.4 by PAMPA; format: ADME; conditions: read-out: Peff
[30] = test system: MV4-11; assay: Antiproliferative activity against human MV411 assessed as reduction in cell viability after 72 hrs by CellTiter-Glo assay; format: functional, cell-based; conditions: MV4-11, 72 h
[31] = test system: MDA-MB-231; assay: Cytotoxicity against human MDA-MB-231 cells at 30 uM after 24 hrs by propidium iodide staining-based fluorescence assay; format: functional, cell-based
[32] = Permeability of compound at pH 7.4 assessed as drug retention by PAMPA; format: ADME
[33] = Half life in mouse microsomes; format: ADME, Microsome
[34] = Efflux ratio of apparent permeability across basolateral to apical side over apical to basolateral side in human Caco2 cells; format: ADME, cell-based; conditions: Caco-2
[35] = test system: KOPN-8; assay: Induction of apoptosis in human KOPN8 cells assessed as decrease in cell viability at 5 uM after 24 hrs by Annexin V/propidium iodide staining-based flow cytometric analysis; format: functional
[36] = test system: SUP-B15; assay: Cytotoxicity in human SUP-B15 cells assessed as decrease in cell viability after 24 hrs by bis-AAF-RF110 dye based assay; format: functional
[37] = test system: KOPN-8; assay: Induction of apoptosis in human KOPN8 cells assessed as late apoptotic cells level after 24 hrs by Annexin V and propidium iodide staining based flow cytometry (reference value: 96.4%); format: functional
[38] = Intrinsic clearance in human microsomes; format: ADME, Microsome
[39] = Protein binding in mouse plasma; format: ADME, cell-free; conditions: read-out: PPB (converted)

Structure (SMILES): NC(=O)c1sccc1Nc1[nH]c(Nc2cccc(OC(F)(F)F)c2)nc2nncc1-2
- pEC50 [1]: < 4.36
- pEC50 [2]: 4.84
- selectivity ratio [3]: 5
- pEC50 [4]: 4.89
- pEC50 [5]: 5.50
- pEC50 [6]: 8.30
- pEC50 [7]: 4.88
- pEC50 [8]: 4.77

Structure (SMILES): O=C(c1cc(-c2csc(-c3ccc(O)cc3)n2)c[nH]1)N1CCCC1
- pEC50 [1]: < 4.36
- pEC50 [2]: < 4.36
- selectivity ratio [3]: > 11
- pEC50 [4]: < 4.36
- pEC50 [5]: 5.40
- pEC50 [6]: < 4.36
- pEC50 [7]: < 4.36
- pEC50 [8]: < 4.36

Structure (SMILES): O=C(O)CCCc1ccc(N(CCCl)CCCl)cc1 [CHLORAMBUCIL]
- half-life [26]: 15.3 h

Structure (SMILES): COc1ccc(-c2[nH]nc(C)c2-c2ccc(OC)c(O)c2)c(O)c1
- pEC50 [1]: < 4.36
- pEC50 [2]: 4.54
- selectivity ratio [3]: > 5
- pEC50 [4]: 5.21
- pEC50 [5]: 5.07
- pEC50 [6]: < 4.66
- pEC50 [7]: 4.46
- pEC50 [8]: < 4.36

Further lines, with some results ahead:

- pEC50 [11]: < 5.00
- fraction unbound [14]: 0.003
- CLint scaled [15]: 10.5 mL/min/kg
- Papp B→A [18]: 4.13 ×10⁻⁶ cm/s
- half-life [19]: 3.56 h
- half-life [20]: > 48 h
- half-life [26]: > 48 h
- Papp A→B [27]: 0.206 ×10⁻⁶ cm/s
- half-life [28]: > 48 h
- Papp [29]: 204 ×10⁻⁶ cm/s
- pEC50 [30]: 6.15
- permeability [32]: 74.6%
- half-life [33]: 5.44 h
- efflux ratio [34]: 20.1
- CLint scaled [38]: 5.85 mL/min/kg
- fraction unbound [39]: 0.002
Structure (SMILES): O=C(Cc1ccccc1)Nc1ccc(-c2nc3cc(NC(=O)Cc4ccccc4)ccc3[nH]2)cc1
- Activity [9]: Active
- Activity [10]: 18.6%
- pEC50 [1]: 6.57
- Activity [12]: 24.2%
- Activity [13]: Active
- pEC50 [2]: 6.11
- selectivity ratio [3]: 13
- Activity [16]: 18.5%
- Activity [17]: Active
- Activity [21]: Active
- pEC50 [4]: < 4.36
- Activity [22]: Active
- pEC50 [5]: 6.20
- Activity [23]: inactive
- Activity [24]: inactive
- Activity [25]: Active
- pEC50 [6]: 5.37
- Activity [31]: Active
- pEC50 [7]: 6.74
- pEC50 [8]: 5.08
- Activity [35]: Active
- Activity [36]: Active
- Activity [37]: 80.1%

- permeability [32]: 0%
Structure (SMILES): CNC(=C[N+](=O)[O-])NCCSCc1ccc(CN(C)C)o1 [RANITIDINE]

- pEC50 [11]: 5.13
- pEC50 [30]: 4.86
Structure (SMILES): c1ccc2[nH]c(-c3ccc(-c4nc5ccccc5[nH]4)nc3)nc2c1
- pEC50 [1]: 5.74
- pEC50 [2]: 4.47
- selectivity ratio [3]: > 5
- pEC50 [4]: < 4.36
- pEC50 [5]: 5.10
- pEC50 [6]: 5.61
- pEC50 [7]: 5.75
- pEC50 [8]: < 4.36

- pEC50 [30]: 6.19
Structure (SMILES): COc1ccc(O)c(-c2cc(-c3ccc(Cl)cc3)[nH]n2)c1
- pEC50 [1]: 5.28
- pEC50 [2]: 4.56
- selectivity ratio [3]: > 5
- pEC50 [4]: 4.98
- pEC50 [5]: 5.09
- pEC50 [6]: < 4.66
- pEC50 [7]: 5.85
- pEC50 [8]: < 4.36

- pEC50 [11]: 5.97
- pEC50 [30]: 6.07
Structure (SMILES): CCN(CC)c1ccc(-n2cnnc2-c2cccc(O)c2)cc1
- pEC50 [1]: < 4.31
- pEC50 [2]: < 4.31
- selectivity ratio [3]: > 24
- pEC50 [4]: 5.75
- pEC50 [5]: 5.69
- pEC50 [6]: 5.97
- pEC50 [7]: < 4.31
- pEC50 [8]: < 4.31
